The text below walks through data of US20090215857A1 (Pfizer Products Inc., priority 2005, published 2009).

As a reminder, the Ki is a measure of affinity in units of concentration, obtained from inhibition or displacement.

Counter-ions that a name gives are not always drawn.

Assay [1] concerns the target T1, human serotonin transporter (Homo sapiens, UniProt P31645).
T1 construct: expressed in transfected cells; host or cells: HEK-293
Nature of the assay: hSERT receptor binding ([125I]-RTI-55 radioligand). The settings on record: membranes of HEK-293 cells transfected with human serotonin transporter cDNA; 50 pM [125I]-RTI-55; IC50 converted by Cheng-Prusoff; read-out: SERT Ki. In a few lines: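 HEK-293 membranes expressing transfected human transporter were incubated with 50 pM [125I]-RTI-55 and test compound (10^−5 to 10^−12 M) in Krebs-HEPES pH 7.4 for 90 min at RT.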

Assay [2] deals with T2, human norepinephrine transporter (Homo sapiens, UniProt P23975).
T2 construct: expressed in transfected cells; host or cells: HEK-293
T2 sequence (P23975 whole entry): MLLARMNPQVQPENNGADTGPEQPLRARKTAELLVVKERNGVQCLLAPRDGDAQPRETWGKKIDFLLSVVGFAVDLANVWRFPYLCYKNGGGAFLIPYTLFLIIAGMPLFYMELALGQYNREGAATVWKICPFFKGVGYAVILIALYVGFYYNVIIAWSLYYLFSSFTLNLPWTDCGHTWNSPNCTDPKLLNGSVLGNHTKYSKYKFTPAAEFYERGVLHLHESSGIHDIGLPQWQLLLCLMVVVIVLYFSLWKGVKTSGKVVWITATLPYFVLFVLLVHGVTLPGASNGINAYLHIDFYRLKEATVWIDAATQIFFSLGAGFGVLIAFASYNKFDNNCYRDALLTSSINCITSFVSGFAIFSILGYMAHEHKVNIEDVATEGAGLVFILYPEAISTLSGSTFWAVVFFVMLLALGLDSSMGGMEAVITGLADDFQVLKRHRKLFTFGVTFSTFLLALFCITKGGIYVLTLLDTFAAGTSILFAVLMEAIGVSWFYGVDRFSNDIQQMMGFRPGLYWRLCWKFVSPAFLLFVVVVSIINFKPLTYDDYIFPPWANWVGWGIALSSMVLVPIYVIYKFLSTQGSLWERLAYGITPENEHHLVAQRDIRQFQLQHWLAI
In words: hNET receptor binding ([125I]-RTI-55 radioligand). The settings on record: membranes of HEK-293 cells transfected with human norepinephrine transporter cDNA; 50 pM [125I]-RTI-55; IC50 converted by Cheng-Prusoff; read-out: NET Ki. In a few lines:
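Membranes from HEK-293 cells expressing human NET were incubated 90 min at room temperature with 50 pM [125I]-RTI-55 and test compound (10^−5M to 10^−12M) in Krebs-HEPES, pH 7.4.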

T1 sequence (P31645 whole entry): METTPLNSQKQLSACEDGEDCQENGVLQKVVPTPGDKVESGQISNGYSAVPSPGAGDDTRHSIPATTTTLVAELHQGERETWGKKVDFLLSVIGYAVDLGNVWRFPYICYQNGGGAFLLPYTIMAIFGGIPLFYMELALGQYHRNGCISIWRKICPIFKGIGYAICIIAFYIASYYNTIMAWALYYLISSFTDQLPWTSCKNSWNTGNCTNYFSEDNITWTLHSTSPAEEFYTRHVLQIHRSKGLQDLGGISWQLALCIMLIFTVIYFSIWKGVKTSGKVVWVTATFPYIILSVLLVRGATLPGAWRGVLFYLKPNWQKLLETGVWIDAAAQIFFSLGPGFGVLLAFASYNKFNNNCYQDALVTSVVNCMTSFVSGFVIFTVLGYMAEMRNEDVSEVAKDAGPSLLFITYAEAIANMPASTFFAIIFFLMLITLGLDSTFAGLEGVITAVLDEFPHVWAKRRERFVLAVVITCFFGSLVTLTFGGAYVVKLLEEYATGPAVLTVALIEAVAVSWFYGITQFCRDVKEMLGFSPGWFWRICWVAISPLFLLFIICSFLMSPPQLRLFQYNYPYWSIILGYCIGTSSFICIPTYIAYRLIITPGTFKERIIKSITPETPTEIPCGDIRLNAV

On to `Fc1ccc(-c2ccc(F)c(Cl)c2)c(CO[C@H]2CCNC2)c1` [Example D-73, (S)-3-(3′-Chloro-4,4′-difluoro-biphenyl-2-ylmethoxy)-pyrrolidine], for which the Ki in assay [1] turned out to be 49.7 nM; in assay [2], 146 nM.
The corresponding values for `Fc1ccc(-c2cccc(-n3cccn3)c2)c(CO[C@H]2CCNC2)c1` [Example D-116, (S)-1-[4′-Fluoro-2′-(pyrrolidin-3-yloxymethyl)-biphenyl-3-yl]-1H-pyrazole] are 38.7 nM and 688 nM.
The corresponding values for `COc1cc(-c2ccc(F)cc2CO[C@H]2CCNC2)cc(OC)c1OC` [Example D-105] are 577 nM and 1520 nM.
On to `NC(=O)c1cccc(-c2ccc(F)cc2CO[C@H]2CCNC2)c1` [Example D-117, (S)-4′-Fluoro-2′-(pyrrolidin-3-yloxymethyl)-biphenyl-3-carboxylic acid amide], for which the Ki in assay [1] is 2160 nM; in assay [2], not below 10000 nM.
The corresponding values for `Fc1ccc(-c2ccccc2CO[C@@H]2CCNC2)cc1F` [Example A-13, (R)-3-(3′,4′-Difluoro-biphenyl-2-ylmethoxy)-pyrrolidine fumarate] are 54 nM and 66 nM.
In the case of `COc1cc(-c2ccccc2CO[C@H]2CCNC2)cc(OC)c1OC` [Example D-57, (S)-3-(3′,4′,5′-Trimethoxy-biphenyl-2-ylmethoxy)-pyrrolidine], the inhibitory constant (Ki) is 589 nM in assay [1] and not below 10000 nM in assay [2].
On to `CCOc1ccc(-c2ccc(F)cc2CO[C@H]2CCNC2)cc1` [Example D-85, (S)-3-(4′-Ethoxy-4-fluoro-biphenyl-2-ylmethoxy)-pyrrolidine], for which the values for the inhibitory constant (Ki) in assay [1] and in assay [2] were 324 nM and 706 nM, respectively.
The corresponding values for `Cc1ccc(-c2ccccc2CO[C@H]2CCNC2)cc1` [Example A-2, (S)-3-(4′-Methyl-biphenyl-2-ylmethoxy)-pyrrolidine hydrochloride] are 93.3 nM and 7.6 nM.
Taken in the same sequence, the figures for `COc1cccc(-c2ccccc2CO[C@H]2CCNC2)c1` [Example D-22, (S)-3-(3′-Methoxy-biphenyl-2-ylmethoxy)-pyrrolidine] were 27.3 nM and 139 nM.
Turning to `CCOc1ncccc1-c1ccccc1CO[C@H]1CCNC1` [Example D-120, (S)-2-Ethoxy-3-[2-(pyrrolidin-3-yloxymethyl)-phenyl]-pyridine], the inhibition constant Ki in assay [1] worked out at 4230 nM; in assay [2], 571 nM.
The corresponding values for `Fc1ccc(-c2ccc(Cl)cc2)c(CO[C@H]2CCNC2)c1` [Example D-111, (S)-3-(4′-Chloro-4-fluoro-biphenyl-2-ylmethoxy)-pyrrolidine] are 155 nM and 97 nM.
Taken in the same sequence, the figures for `CCS(=O)(=O)c1ccc(-c2ccc(F)cc2CO[C@H]2CCNC2)cc1` [Example D-109, (S)-3-(4′-Ethanesulfonyl-4-fluoro-biphenyl-2-ylmethoxy)-pyrrolidine] were not below 10000 nM and not below 10000 nM.
Taken in the same sequence, the figures for `Fc1ccc(-c2cccc(C(F)(F)F)c2)c(CO[C@H]2CCNC2)c1` [Example D-75, (S)-3-(4-Fluoro-3′-trifluoromethyl-biphenyl-2-ylmethoxy)-pyrrolidine] were 106 nM and 598 nM.
`c1ccc(-c2ccccc2CO[C@H]2CCNC2)cc1` [Example A-7, (S)-3-(Biphenyl-2-ylmethoxy)-pyrrolidine hydrochloride]: the inhibition constant (Ki) worked out at 34.5 nM in assay [1] and 13.5 nM in assay [2].
Taken in the same sequence, the figures for `Fc1ccc(F)c(-c2ccccc2CO[C@H]2CCNC2)c1` [Example D-8, (S)-3-(2′,5′-Difluoro-biphenyl-2-ylmethoxy)-pyrrolidine] were 208 nM and 21.9 nM.
For the molecule `COc1cccc(-c2ccc(F)cc2CO[C@H]2CCNC2)c1` [Example D-114, (S)-3-(4-Fluoro-3′-methoxy-biphenyl-2-ylmethoxy)-pyrrolidine], the Ki in assay [1] is 60 nM; in assay [2], 145 nM.
For `Cc1ccc(-c2ccccc2CO[C@H]2CCNC2)cc1C` [Example D-7, (S)-3-(3′,4′-Dimethyl-biphenyl-2-ylmethoxy)-pyrrolidine], the Ki is 110 nM in assay [1] and 21.3 nM in assay [2].
Consider `Oc1cccc(-c2ccc(F)cc2CO[C@H]2CCNC2)c1` [Example D-90, (S)-4′-Fluoro-2′-(pyrrolidin-3-yloxymethyl)-biphenyl-3-ol], for which the Ki came out at 516 nM in assay [1] and 68.3 nM in assay [2].
On to `Fc1ccc(Cl)c(-c2ccccc2CO[C@H]2CCNC2)c1` [Example D-18, (S)-3-(2′-Chloro-5′-fluoro-biphenyl-2-ylmethoxy)-pyrrolidine], for which the inhibitory constant (Ki) in assay [1] is 218 nM; in assay [2], 102 nM.
The corresponding values for `Fc1ccccc1-c1ccccc1CO[C@H]1CCNC1` [Example D-3, (S)-3-(2′-Fluoro-biphenyl-2-ylmethoxy)-pyrrolidine] are 304 nM and 14.7 nM.
For `N#Cc1ccc(-c2ccc(F)cc2CO[C@H]2CCNC2)cc1` [Example D-110, (S)-4′-Fluoro-2′-(pyrrolidin-3-yloxymethyl)-biphenyl-4-carbonitrile], the inhibitory constant (Ki) turned out to be 1320 nM in assay [1] and 1200 nM in assay [2].
For `CS(=O)(=O)c1ccc(-c2ccc(F)cc2CO[C@H]2CCNC2)cc1` [Example D-102, (S)-3-(4-Fluoro-4′-methanesulfonyl-biphenyl-2-methoxy)-pyrrolidine], the Ki in assay [1] and in assay [2] was not below 10000 nM in each case.
For `COc1ccc(F)cc1-c1ccc(F)cc1CO[C@H]1CCNC1` [Example D-64, (S)-3-(4,5′-Difluoro-2′-methoxy-biphenyl-2-ylmethoxy)-pyrroldine], the Ki in assay [1] was 656 nM; in assay [2] it was 1290 nM.
The corresponding values for `N#Cc1cccc(-c2ccc(F)cc2CO[C@H]2CCNC2)c1` [Example D-62, (S)-4′-Fluoro-2′-(pyrrolidin-3-yloxymethyl)-biphenyl-3-carbonitrile] are 319 nM and 480 nM.
In the case of `Fc1ccc(-c2ccc(OC(F)(F)F)cc2)c(CO[C@H]2CCNC2)c1` [Example D-91, (S)-3-(4-Fluoro-4′-trifluoromethoxy-biphenyl-2-ylmethoxy)-pyrrolidine], the inhibitory constant (Ki) is 16.5 nM in assay [1] and 935 nM in assay [2].
The corresponding values for `Fc1ccc(-c2ccccc2CO[C@H]2CCNC2)cc1F` [Example A-5, (S)-3-(3′-4′-Difluoro-biphenyl-2-ylmethyloxy)-pyrrolidine hydrochloride] are 12 nM and 11.3 nM.
The corresponding values for `Clc1ccc(-c2ccccc2CO[C@H]2CCNC2)cc1Cl` [Example D-4, (S)-3-(3′,4′-Dichloro-biphenyl-2-ylmethoxy)-pyrrolidine] are 18.3 nM and 15.1 nM.
The corresponding values for `Fc1ccc(F)c(-c2cccnc2CO[C@H]2CCNC2)c1` [Example C-1, (S)-3-(2,5-Difluoro-phenyl)-2-(pyrrolidin-3-yloxymethyl)-pyridine fumarate] are 108 nM and 382 nM.
For `Fc1ccc(CO[C@H]2CCNC2)c(-c2ccccc2F)c1` [Example A-25, (S)-(5,2′-Difluoro-biphenyl-2-ylmethoxy)-pyrrolidine hydrochloride], the Ki in assay [1] was 152 nM; in assay [2], 26.2 nM.
Take `Fc1cc(CO[C@H]2CCNC2)c(-c2cccc(F)c2F)cc1F` [Example A-31, (3S)-3-[(2′,3′,4,5-tetrafluorobiphenyl-2-yl)methoxy]pyrrolidine fumarate]: the inhibition constant Ki in assay [1] is 142 nM; in assay [2], 46.3 nM.
The corresponding values for `Clc1cccc(-c2ccccc2CO[C@H]2CCNC2)c1` [Example D-13, (S)-3-(3′-Chloro-biphenyl-2-ylmethoxy)-pyrrolidine] are 21.6 nM and 43.8 nM.
Taken in the same sequence, the figures for `CSc1ccccc1-c1ccccc1CO[C@H]1CCNC1` [Example A-21, (S)-3-(2′-Methylsulfanyl-biphenyl-2-ylmethoxy)-pyrrolidine hydrochloride] were 307 nM and 610 nM.
`CC(=O)c1cccc(-c2ccccc2CO[C@H]2CCNC2)c1` [Example D-41]: the Ki came out at 345 nM in assay [1] and 1280 nM in assay [2].
The corresponding values for `COc1ccc(-c2ccc(F)cc2CO[C@H]2CCNC2)cc1C` [Example D-98, (S)-3-(4-Fluoro-4′-methoxy-3′-methyl-biphenyl-2-ylmethoxy)-pyrrolidine] are 292 nM and 187 nM.
With `COc1ccc(-c2ccccc2CO[C@H]2CCNC2)c(OC)c1` [Example D-54, (S)-3-(2′,4′-Dimethoxy-biphenyl-2-ylmethoxy)-pyrrolidine], the inhibition constant (Ki) in assay [1] and in assay [2] was not below 10000 nM in each case.
Regarding `COc1ccc(-c2ccccc2CO[C@H]2CCNC2)cc1OC` [Example D-36, (S)-3-(3′,4′-Dimethoxy-biphenyl-2-ylmethoxy)-pyrrolidine], the Ki in assay [1] was 150 nM; in assay [2] it was 635 nM.
Taken in the same sequence, the figures for `c1ccc(-c2ccccc2CO[C@@H]2CCNC2)cc1` [Example A-14, (R)-3-(Biphenyl-2-ylmethoxy)-pyrrolidine hydrochloride] were 204 nM and 67.5 nM.
Taken in the same sequence, the figures for `Fc1ccc(-c2cccc(OC(F)(F)F)c2)c(CO[C@H]2CCNC2)c1` [Example D-95, (S)-3-(4-Fluoro-3′-trifluoromethoxy-biphenyl-2-ylmethoxy)-pyrrolidine] were 122 nM and 331 nM.
